BindingDB's records for doi:10.7270/Q2N58K09 (The Scripps Research Institute Molecular Screening Center, 2013)
pIC50: −log10 of the molar value.

What follows are compounds tested against Huntingtin (Homo sapiens, UniProt P42858).
Sequence of Huntingtin (P42858 whole entry): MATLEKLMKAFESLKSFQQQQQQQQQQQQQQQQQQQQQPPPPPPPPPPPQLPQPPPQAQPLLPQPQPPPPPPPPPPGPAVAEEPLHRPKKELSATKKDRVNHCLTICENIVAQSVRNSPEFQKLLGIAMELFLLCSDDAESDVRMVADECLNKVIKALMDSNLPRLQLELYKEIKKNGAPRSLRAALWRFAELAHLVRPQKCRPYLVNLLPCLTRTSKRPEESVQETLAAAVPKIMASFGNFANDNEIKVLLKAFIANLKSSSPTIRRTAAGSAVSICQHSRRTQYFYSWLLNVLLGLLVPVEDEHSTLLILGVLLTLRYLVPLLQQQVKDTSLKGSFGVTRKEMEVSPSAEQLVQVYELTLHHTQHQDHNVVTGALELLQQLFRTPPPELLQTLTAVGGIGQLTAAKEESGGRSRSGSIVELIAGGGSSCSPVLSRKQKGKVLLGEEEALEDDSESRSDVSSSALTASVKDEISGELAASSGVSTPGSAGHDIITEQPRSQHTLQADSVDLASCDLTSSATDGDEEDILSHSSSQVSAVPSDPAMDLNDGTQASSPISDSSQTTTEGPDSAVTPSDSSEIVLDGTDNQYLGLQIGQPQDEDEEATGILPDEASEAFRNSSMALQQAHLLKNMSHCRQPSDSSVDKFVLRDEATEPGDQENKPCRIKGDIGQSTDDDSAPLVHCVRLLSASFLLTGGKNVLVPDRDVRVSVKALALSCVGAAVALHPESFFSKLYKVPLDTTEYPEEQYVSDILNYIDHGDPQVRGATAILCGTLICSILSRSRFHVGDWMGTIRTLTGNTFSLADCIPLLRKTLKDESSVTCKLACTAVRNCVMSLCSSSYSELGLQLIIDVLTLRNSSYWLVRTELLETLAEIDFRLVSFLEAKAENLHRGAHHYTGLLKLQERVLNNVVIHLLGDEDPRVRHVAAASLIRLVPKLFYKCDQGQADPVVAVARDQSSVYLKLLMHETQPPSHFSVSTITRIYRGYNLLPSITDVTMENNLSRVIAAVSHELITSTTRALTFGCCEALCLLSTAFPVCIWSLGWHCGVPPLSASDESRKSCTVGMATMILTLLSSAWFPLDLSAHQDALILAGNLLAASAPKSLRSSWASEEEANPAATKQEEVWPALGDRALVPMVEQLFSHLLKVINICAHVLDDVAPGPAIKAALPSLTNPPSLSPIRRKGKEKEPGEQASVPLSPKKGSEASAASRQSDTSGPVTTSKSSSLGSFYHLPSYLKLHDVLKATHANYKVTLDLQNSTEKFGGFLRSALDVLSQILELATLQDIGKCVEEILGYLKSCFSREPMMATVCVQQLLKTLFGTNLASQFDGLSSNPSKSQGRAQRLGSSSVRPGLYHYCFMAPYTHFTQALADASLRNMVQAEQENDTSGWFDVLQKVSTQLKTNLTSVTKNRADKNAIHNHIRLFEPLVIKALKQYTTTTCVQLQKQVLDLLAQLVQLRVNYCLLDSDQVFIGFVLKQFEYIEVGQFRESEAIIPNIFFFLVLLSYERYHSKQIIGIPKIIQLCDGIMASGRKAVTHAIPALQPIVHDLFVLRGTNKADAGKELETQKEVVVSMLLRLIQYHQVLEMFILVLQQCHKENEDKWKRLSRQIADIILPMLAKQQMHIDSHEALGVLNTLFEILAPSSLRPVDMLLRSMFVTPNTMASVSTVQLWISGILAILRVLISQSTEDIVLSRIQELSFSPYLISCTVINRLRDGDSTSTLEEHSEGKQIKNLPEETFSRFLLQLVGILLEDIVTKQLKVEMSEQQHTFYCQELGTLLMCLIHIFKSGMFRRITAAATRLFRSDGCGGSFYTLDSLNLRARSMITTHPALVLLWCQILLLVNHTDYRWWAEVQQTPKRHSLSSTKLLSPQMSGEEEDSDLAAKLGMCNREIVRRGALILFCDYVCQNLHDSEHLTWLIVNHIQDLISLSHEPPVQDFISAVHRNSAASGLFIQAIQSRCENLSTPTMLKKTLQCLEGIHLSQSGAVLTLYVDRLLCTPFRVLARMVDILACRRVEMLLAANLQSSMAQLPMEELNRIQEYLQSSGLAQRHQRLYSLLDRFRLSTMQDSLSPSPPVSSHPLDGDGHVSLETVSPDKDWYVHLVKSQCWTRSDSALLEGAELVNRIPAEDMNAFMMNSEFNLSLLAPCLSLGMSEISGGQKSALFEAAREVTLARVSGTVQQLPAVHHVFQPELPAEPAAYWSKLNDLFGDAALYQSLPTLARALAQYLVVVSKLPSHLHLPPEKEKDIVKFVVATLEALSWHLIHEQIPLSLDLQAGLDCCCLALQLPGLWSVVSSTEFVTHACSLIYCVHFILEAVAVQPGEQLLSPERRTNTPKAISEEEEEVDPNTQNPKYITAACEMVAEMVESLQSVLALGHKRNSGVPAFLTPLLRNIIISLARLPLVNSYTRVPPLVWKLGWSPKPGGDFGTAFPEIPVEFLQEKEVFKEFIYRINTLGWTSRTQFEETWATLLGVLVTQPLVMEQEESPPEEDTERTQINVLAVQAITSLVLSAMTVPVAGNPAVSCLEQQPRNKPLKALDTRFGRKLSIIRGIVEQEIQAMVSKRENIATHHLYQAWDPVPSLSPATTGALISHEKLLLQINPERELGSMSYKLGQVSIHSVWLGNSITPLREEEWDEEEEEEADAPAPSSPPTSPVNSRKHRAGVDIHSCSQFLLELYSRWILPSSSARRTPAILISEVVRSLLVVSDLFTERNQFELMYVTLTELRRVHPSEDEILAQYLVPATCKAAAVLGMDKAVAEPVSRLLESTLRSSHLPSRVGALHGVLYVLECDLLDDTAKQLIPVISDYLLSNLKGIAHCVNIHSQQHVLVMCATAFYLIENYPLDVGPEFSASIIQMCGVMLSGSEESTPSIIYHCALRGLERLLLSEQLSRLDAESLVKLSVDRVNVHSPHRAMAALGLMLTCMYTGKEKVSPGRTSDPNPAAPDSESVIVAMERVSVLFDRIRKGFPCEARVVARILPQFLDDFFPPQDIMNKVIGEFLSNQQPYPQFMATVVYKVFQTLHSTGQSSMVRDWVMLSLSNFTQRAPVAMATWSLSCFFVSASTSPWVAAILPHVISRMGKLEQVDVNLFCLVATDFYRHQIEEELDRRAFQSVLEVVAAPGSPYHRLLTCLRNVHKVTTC

| SMILES | pIC50 |
| --- | --- |
| C=CCOc1c(OC)cc(CN=Nc2cccc(C(=O)O)c2)c(Br)c1Br | 5.64 |
| O=C1C(=O)N(c2nc3ccc(Cl)cc3s2)C(c2ccco2)C1C(=O)c1ccco1 (stereo unspecified) | 6.01 |
| CC(C)c1ccc(C2c3[nH]c4ccccc4c3Cc3c(O)n(-c4ccccc4C(=O)N4CCC[C@@H]4C(=O)O)c(=O)n32)cc1 (stereo partly specified) | 5.55 |
| CC(C)c1ccc(C2c3[nH]c4ccccc4c3Cc3c(O)n(-c4ccccc4C(=O)N4CCC[C@H]4C(=O)O)c(=O)n32)cc1 (stereo partly specified) | 5.47 |
| CCCOc1cccc(C2C(C(=O)c3ccc(C)o3)C(=O)C(=O)N2c2nc(C)c(C(C)=O)s2)c1 (stereo unspecified) | 5.39 |
| CC(=O)C1C(=O)C(=O)N(c2cc(C(C)(C)C)on2)C1c1ccc(Br)cc1 (stereo unspecified) | 5.60 |
| CCN(CC)C(=O)NC1CC2CCCC(C1)N2Cc1ccccc1 (stereo unspecified) [1,1-diethyl-3-[9-(phenylmethyl)-9-azabicyclo[3.3.1]nonan-3-yl]urea] | 5.55 |
| CCCOc1ccc(-n2c(O)cc(SC(=N)NN=C(C)c3cccs3)c2O)cc1 [2,5-dioxo-1-(4-propoxyphenyl)-3-pyrrolidinyl 2-[1-(2-thienyl)ethylidene]hydrazinecarbimidothioate] | 5.11 |
| COc1ccc2nc(N3C(=O)C(=O)C(C(=O)c4ccco4)C3c3ccc(OC)c(OC)c3)sc2c1 (stereo unspecified) [2-(3,4-dimethoxyphenyl)-3-(furan-2-carbonyl)-4-hydroxy-1-(6-methoxy-1,3-benzothiazol-2-yl)-2H-pyrrol-5-one] | 5.69 |
| N#CC(C#N)C(=Nc1ccc(F)cc1)SCc1cccc(Br)c1 [2-[(3-bromophenyl)methylsulfanyl-[(4-fluorophenyl)amino]methylidene]propanedinitrile] | 5.12 |
| Cc1cc(N2C(=O)C(=O)C(C(=O)c3cc4ccccc4o3)C2c2cccc(Cl)c2)no1 (stereo unspecified) [3-(1-benzofuran-2-ylcarbonyl)-2-(3-chlorophenyl)-1-(5-methyl-1,2-oxazol-3-yl)-4-oxidanyl-2H-pyrrol-5-one] | 5.92 |
| Cc1ccc2nc(N3C(=O)C(=O)C(C(=O)c4ccco4)C3c3ccc(C)o3)sc2c1 (stereo unspecified) [3-[2-furanyl(oxo)methyl]-4-hydroxy-1-(6-methyl-1,3-benzothiazol-2-yl)-2-(5-methyl-2-furanyl)-2H-pyrrol-5-one;oxalic acid] | 6.20 |
| Cc1ccc2c(c1)C(=NNc1cccc(C(=O)O)c1)C(=O)N2C [3-[(2Z)-2-(1,5-dimethyl-2-oxidanylidene-indol-3-ylidene)hydrazinyl]benzoic acid] | 5.30 |
| Cc1[nH]n(C(N)=S)c(=O)c1N=Nc1c(Br)cc(Br)cc1Br [3-methyl-5-oxo-4-[(2,4,6-tribromophenyl)diazenyl]-4H-pyrazole-1-carbothioamide] | 5.24 |
| N#CC1=c2sc(=Cc3ccco3)c(=O)n2C(=N)C(C#N)C1c1ccco1 (stereo unspecified) [5-amino-7-(furan-2-yl)-2-(furan-2-ylmethylidene)-3-oxo-7H-[1,3]thiazolo[3,2-a]pyridine-6,8-dicarbonitrile] | 5.27 |
| CCOC(=O)C1=C(C)N=C(SCc2cc(=O)[nH][nH]2)C(C#N)C1c1cccs1 (stereo unspecified) [5-cyano-2-methyl-6-[(5-oxo-1,2-dihydropyrazol-3-yl)methylthio]-4-thiophen-2-yl-1,4-dihydropyridine-3-carboxylic acid ethyl ester] | 5.13 |
| N#CC(C(=O)Nc1ccc(Cl)cc1)C(=S)Nc1ccccc1 (stereo unspecified) [(Z)-3-anilino-N-(4-chlorophenyl)-2-cyano-3-sulfanylprop-2-enamide] | 5.21 |
| N=C(NN=Cc1cccs1)Sc1cc(O)n(-c2ccc(Br)cc2)c1O [[1-(4-bromophenyl)-2,5-dioxopyrrolidin-3-yl] N'-[(E)-thiophen-2-ylmethylideneamino]carbamimidothioate] | 5.08 |
| COC(=O)c1sc(N2C(=O)C(=O)C(C(=O)c3ccc(C)o3)C2c2ccc([N+](=O)[O-])cc2)nc1C (stereo unspecified) [methyl 2-[4-hydroxy-3-(5-methylfuran-2-carbonyl)-2-(4-nitrophenyl)-5-oxo-2H-pyrrol-1-yl]-4-methyl-1,3-thiazole-5-carboxylate] | 6.20 |

The remaining lines, values ahead:

| pIC50 | SMILES |
| --- | --- |
| 5.29 | CC(=NNC(=N)Sc1cc(O)n(-c2cccc(Cl)c2)c1O)c1cccs1 [MLS000579124] |
| 5.83 | N#CC1C(=O)NC(c2ccc(-c3cc(Cl)ccc3Cl)o2)N(c2ccccc2)C1=S (stereo unspecified) [MLS000592167] |
| 5.72 | CCc1nnc(NS(=O)(=O)c2ccc(N=CCC(=O)c3ccc(C)cc3)cc2)s1 [SMR000211931] |
| 5.59 | C=c1c(C#N)c2[nH]c(N)c(C#N)c(C)c-2c1=Cc1ccc(-c2ccccc2C(=O)O)o1 [SMR000277284] |
| 5.54 | COC1=CC(=Cc2c(-c3ccccc3)[nH]n(-c3ccc(NC(C)=O)cc3)c2=O)C=CC1=O [SMR000299432] |
| 5.54 | O=C(O)c1ccc(-n2c(O)cc(SC(=Nc3ccc(F)cc3)NCc3ccc4c(c3)OCO4)c2O)cc1 [SMR000313486] |
| 5.60 | Oc1ccc(CN=Nc2ccnc3cc(Cl)ccc23)c(O)c1O [SMR000590557] |
